In patent US12629468B2, “Devices and methods for delivering synergistic active agents to target sites” (IRRIMAX Corporation, priority 2023, dated 2026):
Read-outs that look alike come from different tables or passages of the source.

Key:
Type in all cases: cell-based
[1] = test system: P. aeruginosa; assay: Chequerboard assay, FIC and synergy analysis; conditions: Pseudomonas aeruginosa
Description: (§1) Chlorhexidine gluconate (CHG) and ethyl lauroyl arginate hydrochloride (LAE) were analyzed by chequerboard assay with each test organism to determine potential additive, synergistic, and antagonistic activity. The test organisms S. aureus, P. aeruginosa, and E. coli were tested at ranges of chlorhexidine gluconate (0.122-15.625 μg/mL, 1.25-160 μg/mL, and 0.125-16 μg/mL, respectively) and ethyl lauroyl arginate hydrochloride (LAE) (0.117-15 μg/mL, 0.4688-60 μg/mL, and 0.2344-30 μg/mL, respectively). FIC was calculated by the following Equation 2: […]

[2] = test system: E. coli; assay: Chequerboard assay, FIC and synergy analysis; conditions: Escherichia coli
Description: as §1

[3] = test system: S. aureus; assay: Chequerboard assay, FIC and synergy analysis; conditions: Staphylococcus aureus
Description: as §1

[4] = test system: E. coli (ATCC BAA 1427); assay: Minimal bactericidal concentration by serial 2-fold dilution; conditions: 250 μg/mL (0.025% w/w), positive control
Description: (§2) The minimal bactericidal concentration (MBC) of ethyl lauroyl arginate hydrochloride (LAE) was determined against S. aureus (ATCC 6538), P. aeruginosa (ATCC 15442), and E. coli (ATCC BAA 1427) by serial 2-fold dilution experiments. A solution of chlorhexidine (0.025% w/w) was used as a positive control and comparator.

[5] = test system: S. aureus (ATCC 6538); assay: as above; conditions: 250 μg/mL (0.025% w/w), positive control
Description: as §2

[6] = test system: P. aeruginosa (ATCC 15442); assay: as above; conditions: 250 μg/mL (0.025% w/w), positive control
Description: as §2

[7] = test system: E. coli (ATCC BAA 1427); assay: Minimum inhibitory concentration / growth inhibition by serial 2-fold dilution; conditions: Escherichia coli, BAA1427; 250 μg/mL (0.025% w/w), positive control
Description: as §2, with “inhibitory” for “bactericidal”, “(MIC, the minimum inhibitory concentration required for 90% growth reduction)” for “(MBC)”, “hydrochloride” for “hydrochloride (LAE)”

[8] = test system: S. aureus (ATCC 6538); assay: as above; conditions: Staphylococcus aureus, ATCC6538, read-out: Average Growth Inhibition (%)
Description: as §2, with “inhibitory” for “bactericidal”, “(MIC, the minimum inhibitory concentration required for 90% growth reduction)” for “(MBC)”, “hydrochloride” for “hydrochloride (LAE)”

[9] = test system: P. aeruginosa (ATCC 15442); assay: as above; conditions: Pseudomonas aeruginosa, ATCC15442, read-out: Average Growth Inhibition (%)
Description: as §2, with “inhibitory” for “bactericidal”, “(MIC, the minimum inhibitory concentration required for 90% growth reduction)” for “(MBC)”, “hydrochloride” for “hydrochloride (LAE)”

[10] = read-out: MIC of CHG in Presence of LAE

## N=C(NCCCCCCNC(=N)NC(=N)Nc1ccc(Cl)cc1)NC(=N)Nc1ccc(Cl)cc1 [Chlorhexidine gluconate, reference compound]
[1]; read-out: MIC of CHG Alone
  MIC: 40 µg/mL
[1]; [10]
  MIC: 10 µg/mL
[2]; read-out: MIC of CHG Alone
  MIC: 8 µg/mL
[2]; [10]
  MIC: 4 µg/mL
[3]; read-out: MIC of CHG Alone
  MIC: 1.95 µg/mL
[3]; [10]
  MIC: 0.977 µg/mL
[4]
  CFU/mL: 0 CFU/mL
  Number of Colonies: 0
[4]; listed as chlorhexidine
  Number of Colonies: no colonies
[5]
  CFU/mL: 0 CFU/mL
  Number of Colonies: 0
[5]; listed as chlorhexidine
  Number of Colonies: no colonies
[6]
  CFU/mL: 0 CFU/mL
  Number of Colonies: 0
[6]; listed as chlorhexidine
  Number of Colonies: no colonies
[7]
  inhibition at 250 µg/mL: 63%
[8]
  inhibition at 250 µg/mL: 121%
[9]
  inhibition at 250 µg/mL: 81%
